# Measured values reported in a melting point compilation (Tetko et al.; mined from patent text by program, amines drawn as free bases though some values may be those of a salt).
row,SMILES,melting point [°C]
1,N#CCCNC(=O)c1cccc(-c2ccc3c(c2)N(Cc2cc(Cl)cc(Cl)c2)CC3)c1,179 to 180
2,Nc1ccc2[nH]c3cc(-c4ccccc4Cl)c4c(c3c2c1)C(=O)NC4=O,216 to 222
3,COc1ccc(Cl)cc1CN(CCO)c1ncnc2c1ncn2C1OC(CO)C(O)C1O (stereo unspecified),98 to 100
4,CCCCOC(=O)C(N)C=CCP(=O)(O)O (stereo unspecified),160 to 161
5,CS(=O)(=O)N1CCC(Nc2nc(Nc3cccc(C(F)(F)F)c3)nc(OCc3ccccn3)n2)CC1,160 to 162
6,O=C(Oc1ccccc1)OC1c2nccnc2C(=O)N1c1ccc2ccc(Cl)nc2n1 (stereo unspecified),270
7,Oc1cc2c(cc1O)OCC(c1cccc(F)c1)C2 (stereo unspecified),121 to 123
8,CCOCc1nc2c(N)nc3cc(-c4cccc(C(=O)N5CCOCC5)c4)cnc3c2n1CC(C)C,185 to 187
9,CON=C(C1=Nc2ccc(Cl)cc2C(c2ccccc2F)=[N+]([O-])C1)[N+](=O)[O-],207 to 209
10,COc1ccc([C@@H]2CC=CC[C@H]2[N+](=O)[O-])cc1OC (racemic),114 to 116
11,CN1[C@@H](c2cccc(Br)c2)c2ccccc2S1(=O)=O,157
12,CC(C)CCCC(C)C1CCC2C3CC=C4CC(OCCCCCCSC5OC(CO)C(O)C(O)C5O)CCC4(C)C3CCC12C (stereo unspecified),110
13,CN(Cc1ccc(NC(=O)C2=Cc3cc(OCc4cccnc4)ccc3S(=O)(=O)CC2)cc1)C1CCOCC1,225 to 229
14,C=CC(=O)NCc1ccc(Cl)cc1,103 to 104
15,NC(=O)CNC(=O)c1ccnc(-c2ccc3c(c2)C(c2ccc(Cl)cc2Cl)CC3)c1 (stereo unspecified),168 to 170
16,COC1(c2cc(F)cc(OCc3ccc4ccccc4c3)c2)CCOCC1,109 to 111
17,O=C(NCCCCO)c1c([N+](=O)[O-])ccc(N(CCBr)CCBr)c1[N+](=O)[O-],114 to 117
18,O=C(O)c1cc(OCCOc2cccc3ccccc23)cc(OCCOc2cccc3ccccc23)c1,213 to 215
19,COc1ccc(-c2cc(CO)c(=O)n(Cc3ccc(Cl)cc3)c2)cc1,128

row,SMILES,melting point [°C]
1,CCn1c(=O)n(O)c(=O)c2cc(F)c(N3CCOCC3)cc21,162 to 163
2,COC(=O)CC[C@H](NC(=O)c1cccc(CCC2CNc3nc(NC(=O)C(C)(C)C)nc(O)c3C2)c1)C(=O)OC (stereo partly specified),141 to 148
3,OCc1c(Cl)c(Cl)c(Cl)c(Cl)c1Cl,195 to 196
4,CC12CCC(O)CC1=CCC1C2CCC2(C)C(=C(C#N)CC(=O)O)CCC12 (stereo unspecified),245 to 250
5,Cc1c(C)c2c(c(C)c1NCc1ccc(Cl)cc1)C(c1ccc(C(C)C)cc1)C(C)(C)O2 (stereo unspecified),93 to 94
6,CC(C)(C)C(O)(Cn1cncn1)C1CCC1 (stereo unspecified),94 to 99.5
7,CON(c1ccc([N+](=O)[O-])cc1Cl)S(=O)(=O)c1cc(Cl)ccc1Cl,132 to 133
8,CCCCc1ccc(CCCCC(N)(CO)CO)cc1,92 to 94
9,CC1Cc2cc3c(cc2C(c2ccc(N)cc2)=NN1)OCO3 (stereo unspecified),118 to 120
10,CC12CC(N3CCC4(CC3)OCCO4)C(O)CC1CCC1C2CCC2(C)C(O)C(N3CCC(O)CC3)CC12 (stereo unspecified),253 to 255
11,Cn1nccc1OCc1c(S(C)(=O)=O)ccc(C(=O)C2C(=O)CC(C)(C)CC2=O)c1Cl,82
12,Cc1cc(F)ccc1-c1nc(-c2cn(N)c(=O)[nH]c2=O)nc2c1ccc(=O)n2-c1c(F)cccc1F,> 300
13,ClCc1c(-c2ccccc2)c(-c2ccccc2)nn1Cc1ccccc1,99
14,CCOC(=O)CCCOc1ccc(C(=O)Nc2ccccc2S(=O)(=O)c2ccccc2-c2nnn[nH]2)cc1,182 to 184
15,CN1CCN(c2ccc(N/C=C3\C(=O)NC(=O)c4ccc(-n5cccc5)cc43)cc2)CC1,239 to 240
16,COc1ccc(-c2c(Cl)c(CN3C(=O)CCC3=O)nc3sc4c(c23)CCN(Cc2ccccc2)C4)cc1OC,128 to 130
17,CSCCCc1cc(F)c2ncc(C(=O)NCc3ccc(Cl)cc3)c(O)c2c1,178 to 180
18,CCCc1nc2c(N)nc3cc(OCCCn4cccc4)ccc3c2s1,152 to 154
19,c1ccc2c(c1)NCc1cccn1-2,108 to 110

row,SMILES,melting point [°C]
1,N#Cc1cc(-c2c3ccccc3cc3sc4ccccc4c23)cc(C#N)c1O,274 to 276
2,ClC(Cl)=CCOc1cc(Cl)c(OCc2ccc(Cl)nc2)c(Cl)c1,93.3
3,CCCCCCCCCCCCCCCCSc1cc(O)c(Sc2nnnn2-c2ccccc2)cc1O,129 to 131
4,CC1(C)Oc2ccc(S(=O)(=O)c3ccccc3)cc2C(N)C1O (stereo unspecified),160 to 163
5,COc1cc(C)ccc1OCCCN1CCC(C(O)(c2ccc(F)cc2)c2ccc(F)cc2)CC1,121 to 122
6,COc1ccc(Oc2ccc3c(c2)OCC(=O)N3)cc1,163 to 164
7,Oc1c(Cl)cc(Cl)cc1CNc1cnsn1,131 to 132
8,COc1ccc(S(=O)(=O)C(CCCCc2ccccc2)C(=O)NO)cc1OC (stereo unspecified),180 to 188
9,CCSc1nc(C(C)(C)C)c[nH]1,116 to 120
10,NCCCCCCCCNc1nc(N)nc2c1ncn2C1C=CC(CO)C1 (stereo unspecified),125 to 127
11,Cc1ccc(-c2ccc3c(c2)C=C(C(=O)Nc2ccc(CN(CCO)CCO)cc2)CC3)cc1,150 to 151
12,CC(C)CC(=O)OC(C)OC(=O)NC1(C(=O)O)CC1 (stereo unspecified),117 to 119
13,COc1cc(N)ccc1S(=O)(=O)Nc1ccc(C)cc1,158 to 160
14,CCN1C(=O)CC(=O)N(CC)C1=O,52
15,O=C(O)c1cccc(-c2ccc3c(c2)N(Cc2ccc(Cl)cc2Cl)CC3)c1,175 to 176
16,CC1=NN(c2cccc(C(=O)O)c2)C(=O)C1=c1[nH]c(=c2[nH]c(=C3C(=O)N(c4cccc(C(=O)O)c4)N=C3C)c3ccccc23)c2ccccc12,> 300
17,CCOc1nc2ccccc2nc1C(=O)Nc1ccc(OCCCCN2CCc3cc(OC)c(OC)cc3C2)cc1,182
18,O=C(O)CCCNC(=O)NCCCCC1CCSS1 (stereo unspecified),94 to 99
19,N#CSCSc1nc(Cl)c(Cl)nc1Cl,90 to 93

# Second part, the molecule after the results:
row,melting point [°C],SMILES
1,231 to 233,c1ccc(-c2cn3cnnc3cn2)cc1
2,241 to 243,O=C(O)c1cccc(C(=O)O)c1Nc1ccc(I)cc1
3,92.5 to 94,CCCCCC(CC(=O)O)c1cc(C(=O)CC)c(OC)cc1OC (stereo unspecified)
4,295 to 297,O=C(O)c1cn2c3c(cc(F)cc3c1=O)CCC2C(F)(F)F (stereo unspecified)
5,131 to 132,Cc1cccnc1-n1c(=S)nc2c(C)cccn2c1=S
6,> 200,CNn1c(C)nc(N2CCc3ccccc3CC2)c(C#N)c1=O
7,> 300,O=C(O)c1c2c(nc3ccc(F)cc13)-c1ccc(-c3ccccc3F)cc1CC2
8,114 to 115,CCOC(=O)CCCNC(=O)c1nn(C2CCCCO2)cc1NC(=O)c1ccccn1 (stereo unspecified)
9,113 to 118,COC(=O)c1c(S(C)(=O)=O)ccc(C(=O)O)c1C
10,129 to 130,CN(C)CCN1C(=O)c2cscc2N(C)c2ncccc21
11,136 to 137,CC(=O)n1cc(C#N)c(-c2cccc(Cl)c2Cl)c1
12,228 to 230,O=C(CCN1CCOCC1)NCc1ccc2c(c1)-c1[nH]nc(-c3ccsc3)c1C2
13,> 300,CCn1cc(C(N)=O)c(=O)c2ccc(-c3ccncc3)cc21
14,40.5 to 41.5,CCOC(=O)Cc1ccccc1I
15,101 to 102,CCOc1cc(OCCCCc2cn(-c3ccc(C(F)(F)F)cn3)nc2OCC)ccc1CCC(=O)O
16,105,O=C(NC/C=C/c1ccccc1)c1ccc(Cl)c(Cl)c1
17,90.5 to 92.5,C=C(Br)C(=O)Nc1ccccc1
18,135 to 136,CC(C(N)=O)c1ccc2c(c1)CCc1ccccc1S2 (stereo unspecified)
19,> 260,CCc1nc2c(N)nc3cc(/C=C/C(=O)N(C)C)ccc3c2n1CC1CCOCC1
20,99 to 100,C[C@H](C#Cc1sccc1Cc1ccc(F)cc1)N(O)C(N)=O
21,79 to 82,CC(C)(C(N)=O)c1cccc(Cn2ccnc2)c1
22,90.6 to 92.5,C=C(c1ccc2cc(OC)ccc2c1)C(O)C(=O)OC (stereo unspecified)

row,melting point [°C],SMILES
1,57 to 58,COc1ccc(-c2oncc2CO)cc1
2,135,NCc1ccc(N2CC(CN3CCC(CC(=O)O)CC3)OC2=O)cc1 (stereo unspecified)
3,196 to 197,Cc1csc2nc(C(=O)O)cn12
4,98.5 to 99.5,CC1CN(c2ncc(Br)cc2C=O)CC1C (stereo unspecified)
5,235,Cc1[nH]c(C=NNC(=O)c2ccc(O)cc2)c(C)c1Br
6,152 to 154,CC(=O)N1C(=O)c2ccccc2N(C(C)=O)C1C(Cl)(Cl)Cl (stereo unspecified)
7,57 to 58,CCC(=O)[C@@H](NC(=O)OCc1ccccc1)[C@@H](C)CC
8,161 to 163,O=C1c2ccsc2S(=O)(=O)CCN1CCCCN1CCN(c2ncccn2)CC1
9,159 to 160,O=c1c(-c2ccccc2)c[nH]n1-c1ncccn1
10,108 to 110,CCN(CC)CCNC(=O)c1cc(I)cc2cc3ccccc3nc12
11,119,CCCCN1C[C@@H](C(=O)O)N(C(=O)[C@H](C)CSC(=O)c2ccccc2)C1=O
12,120 to 122,CC(C)(C)OC(=O)N1CCC(c2nc(-c3ccc(-c4ccccc4)cc3)c[nH]2)CC1
13,173,CC(C)(C)OC(=O)N1CCO[C@@H](c2ccc(C(=O)O)cc2)C1
14,277,COc1ccc(CSc2cnc(O)nc2O)cc1
15,116,CC(C)Nc1cccnc1N1CCN(C(=O)c2ccc(C(=O)NCCOCCO)cc2)CC1
16,131 to 134,C=CC(=O)N1CCc2cc(OC)c(OC)cc2C12CCC(C(=O)OCC)(C(=O)OCC)CC2
17,140,CS(=O)(=O)N1Cc2sccc2C(O)C1 (stereo unspecified)
18,253 to 255,Cc1cc(S)n2nc(CC(=O)O)nc2n1
19,50 to 54,NC(=O)[C@@H]1CCCN1C(=O)/C=C/Sc1ccccc1
20,170 to 175,O=C(O)CCNc1ccc(C(=O)c2ccccc2)cc1[N+](=O)[O-]
21,183 to 187,O=C(Nc1ccc(OC(F)(F)F)cc1)NC1CCN(C(=O)Cc2ccccn2)CC1
22,55 to 56.5,CC(C(=O)Oc1ccc([N+](=O)[O-])cc1)c1ccccc1 (stereo unspecified)
